One assay has as its target T1, HDAC6 enzyme (Homo sapiens, UniProt Q9UBN7).
T1 construct: HDAC6 enzyme prepared by transducing full length HDAC6 gene into Sf-9 insect cells; GST; purchased SignalChem; host or cells: Sf-9 insect cells
T1 sequence (Q9UBN7 1-1215): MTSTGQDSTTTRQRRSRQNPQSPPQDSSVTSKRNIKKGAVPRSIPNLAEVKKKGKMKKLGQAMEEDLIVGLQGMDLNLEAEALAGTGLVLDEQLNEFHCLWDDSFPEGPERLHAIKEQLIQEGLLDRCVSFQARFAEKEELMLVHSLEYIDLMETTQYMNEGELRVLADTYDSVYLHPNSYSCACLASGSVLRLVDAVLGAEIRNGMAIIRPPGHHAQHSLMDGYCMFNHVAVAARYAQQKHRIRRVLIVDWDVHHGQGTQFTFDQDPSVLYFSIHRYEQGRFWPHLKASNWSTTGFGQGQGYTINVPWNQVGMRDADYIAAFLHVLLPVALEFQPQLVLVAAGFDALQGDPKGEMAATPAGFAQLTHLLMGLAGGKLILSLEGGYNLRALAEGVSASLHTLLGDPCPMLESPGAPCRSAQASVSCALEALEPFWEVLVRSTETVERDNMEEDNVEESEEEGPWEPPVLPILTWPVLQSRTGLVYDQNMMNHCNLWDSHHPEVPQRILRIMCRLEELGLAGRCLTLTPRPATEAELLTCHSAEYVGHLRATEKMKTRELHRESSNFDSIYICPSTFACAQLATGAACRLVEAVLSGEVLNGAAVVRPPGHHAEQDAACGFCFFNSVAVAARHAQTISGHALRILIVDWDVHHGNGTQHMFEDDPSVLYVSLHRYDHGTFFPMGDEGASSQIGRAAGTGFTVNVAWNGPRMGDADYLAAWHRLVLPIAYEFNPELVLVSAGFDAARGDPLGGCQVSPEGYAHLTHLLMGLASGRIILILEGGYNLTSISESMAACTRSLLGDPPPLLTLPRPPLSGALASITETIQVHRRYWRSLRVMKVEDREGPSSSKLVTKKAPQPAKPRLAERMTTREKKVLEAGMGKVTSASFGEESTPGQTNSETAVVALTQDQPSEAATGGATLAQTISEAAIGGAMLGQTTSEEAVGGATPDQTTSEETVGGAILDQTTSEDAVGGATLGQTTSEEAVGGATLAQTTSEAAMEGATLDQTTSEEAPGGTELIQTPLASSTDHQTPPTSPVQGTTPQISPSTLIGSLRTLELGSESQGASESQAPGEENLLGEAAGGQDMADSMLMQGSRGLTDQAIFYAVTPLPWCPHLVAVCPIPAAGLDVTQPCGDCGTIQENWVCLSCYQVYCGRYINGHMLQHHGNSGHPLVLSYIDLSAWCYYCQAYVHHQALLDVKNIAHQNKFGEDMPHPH
As to the kind of experiment: HDAC6 enzyme inhibitory assay (HDAC-Glo I/II Assay kit). The format is biochemical. Conditions: wells without enzyme = 100% inhibition, 10 µM. The procedure, abridged: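 Full-length GST-purified HDAC6 from Sf-9 cells preincubated with compound 60 min at room temperature in Tris-HCl pH 7.5 buffer with MgCl2, KCl, NaCl, glutathione, Tween-20. Substrate-developer reaction 20 min, luminescence read; no-enzyme wells set as 100% inhibition.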
Turning to `O=C1c2cc(-c3nnc(C(F)F)o3)ccc2CN1[C@H](c1ccc(F)cn1)[C@@H](O)c1cccc(F)n1` (single isomer, unassigned) [Example 67, 6-[5-(difluoromethyl)-1,3,4-oxadiazol-2-yl]-2-[(1R*,2R*)-1-(5-fluoropyridin-2-yl)-2-(6-fluoropyridin-2-yl)-2-hydroxyethyl]-2,3-dihydro-1H-isoindol-1-one], the “HDAC6 inhibitory rate (%) (10 μM)” value turned out to be 99%.

As for `O=C1c2cc(-c3nnc(C(F)F)o3)ccc2CN1[C@H](C1CCOCC1)[C@@H](O)c1ccc(Cl)cc1` (single isomer, unassigned) [Example 84, 2-[(1R*,2S*)-2-(4-chlorophenyl)-2-hydroxy-1-(oxan-4-yl)ethyl]-6-[5-(difluoromethyl)-1,3,4-oxadiazol-2-yl]-2,3-dihydro-1H-isoindol-1-one], the “HDAC6 inhibitory rate (%) (10 μM)” value turned out to be 100%.

In the case of `O=C1c2cc(-c3nnc(C(F)F)o3)ccc2CN1[C@H](c1ccccn1)[C@@H](O)c1cccc(Cl)n1` (single isomer, unassigned) [Example 115, 2-[(1R*,2R*)-2-(6-chloropyridin-2-yl)-2-hydroxy-1-(pyridin-2-yl)ethyl]-6-[5-(difluoromethyl)-1,3,4-oxadiazol-2-yl]-2,3-dihydro-1H-isoindol-1-one], the “HDAC6 inhibitory rate (%) (10 μM)” value came to 100%.

The assay is the same for the next values; noted with them: wells without enzyme = 100% inhibition, read-out: HDAC6 inhibitory rate (%) (10 μM).
As to `O=C1c2cc(-c3nnc(C(F)F)o3)ccc2CN1[C@H](c1ccccc1)[C@H](O)c1ccccc1` [Example 12, 6-[5-(difluoromethyl)-1,3,4-oxadiazol-2-yl]-2-[(1R,2R)-2-hydroxy-1,2-diphenylethyl]-2,3-dihydro-1H-isoindol-1-one], the inhibition at 10 µM is 100%.

Turning to `O=C1c2cc(-c3nnc(C(F)F)o3)ccc2CN1[C@@H](c1ccc(F)cc1F)[C@@H](O)c1ccc(F)cc1` (racemic) [Example 146, 6-[5-(difluoromethyl)-1,3,4-oxadiazol-2-yl]-2-[(1SR,2SR)-1-(2,4-difluoro-phenyl)-2-(4-fluorophenyl)-2-hydroxy-ethyl]-2,3-dihydro-1H-isoindol-1-one], the inhibition at 10 µM was 95%.

With `O=C1c2cc(-c3nnc(C(F)F)o3)ccc2CN1[C@H](c1ccc(F)cc1)[C@H](O)c1ccc(C(F)(F)F)nc1` (racemic) [Example 142, 6-[5-(difluoromethyl)-1,3,4-oxadiazol-2-yl]-2-{(1RS,2RS)-1-(4-fluorophenyl)-2-hydroxy-2-[6-(trifluoromethyl)pyridin-3-yl]ethyl}-2,3-dihydro-1H-isoindol-1-one], the inhibition at 10 µM turned out to be 100%.

As to `O=C1c2cc(-c3nnc(C(F)F)o3)ccc2CN1[C@H](c1ccc(F)nc1)[C@@H](O)c1ccc(F)c(F)c1` (racemic) [Example 56, 6-[5-(difluoromethyl)-1,3,4-oxadiazol-2-yl]-2-[(1RS,2SR)-2-(3,4-difluorophenyl)-1-(6-fluoropyridin-3-yl)-2-hydroxyethyl]-2,3-dihydro-1H-isoindol-1-one], the inhibition at 10 µM came out at 100%.

Take `O=C1c2cc(-c3nnc(C(F)F)o3)ccc2CN1[C@H](c1ccc(F)cc1)[C@@H](O)c1cccc(F)c1` (racemic) [Example 16, 6-[5-(difluoromethyl)-1,3,4-oxadiazol-2-yl]-2-[(1RS,2SR)-2-(3-fluorophenyl)-1-(4-fluorophenyl)-2-hydroxyethyl]-2,3-dihydro-1H-isoindol-1-one]: the inhibition at 10 µM is 99%.

In the case of `O=C1c2cc(-c3nnc(C(F)F)o3)ccc2CN1[C@H](C1CCOCC1)[C@H](O)c1cccc(F)c1` [Example 149, 6-[5-(difluoromethyl)-1,3,4-oxadiazol-2-yl]-2-[(1R,2R)-2-(3-fluorophenyl)-2-hydroxy-1-(oxan-4-yl)ethyl]-2,3-dihydro-1H-isoindol-1-one], the inhibition at 10 µM worked out at 100%.

Take `O=C1c2cc(-c3nnc(C(F)F)o3)ccc2CN1[C@H](C1CCOCC1)[C@@H](O)c1ccc(F)c(F)c1` (single isomer, unassigned) [Example 87, 6-[5-(difluoromethyl)-1,3,4-oxadiazol-2-yl]-2-[(1R*,2S*)-2-(3,4-difluorophenyl)-2-hydroxy-1-(oxan-4-yl)ethyl]-2,3-dihydro-1H-isoindol-1-one]: the inhibition at 10 µM amounted to 100%.

Turning to `O=C1c2cc(-c3nnc(C(F)F)o3)ccc2CN1[C@H](c1ccc(F)cn1)[C@@H](O)c1ccccn1` (single isomer, unassigned) [Example 59, 6-[5-(difluoromethyl)-1,3,4-oxadiazol-2-yl]-2-[(1R*,2R*)-1-(5-fluoropyridin-2-yl)-2-hydroxy-2-(pyridin-2-yl)ethyl]-2,3-dihydro-1H-isoindol-1-one], the inhibition at 10 µM is 100%.

For `O=C1c2cc(-c3nnc(C(F)F)o3)ccc2CN1[C@H](c1cccnn1)[C@@H](O)c1cccc(Cl)c1` (single isomer, unassigned) [Example 122, 2-[(1R*,2S*)-2-(3-chlorophenyl)-2-hydroxy-1-(pyridazin-3-yl)ethyl]-6-[5-(difluoromethyl)-1,3,4-oxadiazol-2-yl]-2,3-dihydro-1H-isoindol-1-one], the inhibition at 10 µM came out at 100%.

Consider `O=C1c2cc(-c3nnc(C(F)F)o3)ccc2CN1[C@H](c1ccc(C(F)(F)F)cc1)[C@@H](O)c1ccccn1` (racemic) [Example 26, 6-[5-(difluoromethyl)-1,3,4-oxadiazol-2-yl]-2-{(1RS,2RS)-2-hydroxy-2-(pyridin-2-yl)-1-[4-(trifluoromethyl)phenyl]ethyl}-2,3-dihydro-1H-isoindol-1-one], for which the inhibition at 10 µM was determined as 99%.

With `O=C1c2cc(-c3nnc(C(F)F)o3)ccc2CN1[C@H](C1CC1)[C@@H](O)c1ccc(F)cc1` [Example 9, 2-[(1R,2S)-1-cyclopropyl-2-(4-fluorophenyl)-2-hydroxyethyl]-6-[5-(difluoromethyl)-1,3,4-oxadiazol-2-yl]-2,3-dihydro-1H-isoindol-1-one], the inhibition at 10 µM was 100%.

As to `O=C1c2cc(-c3nnc(C(F)F)o3)ccc2CN1[C@H](c1ccccc1)[C@@H](O)C1CCC(F)(F)CC1` (racemic) [Example 25, 2-[(1RS,2SR)-2-(4,4-difluorocyclohexyl)-2-hydroxy-1-phenylethyl]-6-[5-(difluoromethyl)-1,3,4-oxadiazol-2-yl]-2,3-dihydro-1H-isoindol-1-one], the inhibition at 10 µM was 100%.

`O=C1c2cc(-c3nnc(C(F)F)o3)ccc2CN1[C@H](C1CCOCC1)[C@@H](O)c1ccc(F)cc1` [Example 72, 6-[5-(difluoromethyl)-1,3,4-oxadiazol-2-yl]-2-[(1R,2S)-2-(4-fluorophenyl)-2-hydroxy-1-(oxan-4-yl)ethyl]-2,3-dihydro-1H-isoindol-1-one]: the inhibition at 10 µM stood at 100%.

For `O=C1c2cc(-c3nnc(C(F)F)o3)ccc2CN1[C@H](c1ccc(F)nc1)[C@@H](O)c1ccc(F)cc1` (single isomer, unassigned) [Example 34, 6-[5-(difluoromethyl)-1,3,4-oxadiazol-2-yl]-2-[(1R*,2S*)-2-(4-fluorophenyl)-1-(6-fluoropyridin-3-yl)-2-hydroxyethyl]-2,3-dihydro-1H-isoindol-1-one], the inhibition at 10 µM worked out at 100%.

On to `O=C1c2cc(-c3nnc(C(F)F)o3)ccc2CN1[C@H](c1cnccn1)[C@@H](O)c1ccc(F)c(F)c1` (single isomer, unassigned) [Example 85, 6-[5-(difluoromethyl)-1,3,4-oxadiazol-2-yl]-2-[(1R*,2S*)-2-(3,4-difluorophenyl)-2-hydroxy-1-(pyrazin-2-yl)ethyl]-2,3-dihydro-1H-isoindol-1-one], for which the inhibition at 10 µM worked out at 100%.

For `O=C1c2cc(-c3nnc(C(F)F)o3)ccc2CN1[C@H](c1ccccc1F)[C@@H](O)c1ccccc1` (racemic) [Example 27, 6-[5-(difluoromethyl)-1,3,4-oxadiazol-2-yl]-2-[(1RS,2SR)-1-(2-fluorophenyl)-2-hydroxy-2-phenylethyl]-2,3-dihydro-1H-isoindol-1-one], the inhibition at 10 µM was 101%.

The values are drawn from patent US12384770B2, “Heterocyclic compound” (Takeda Pharmaceutical Company Limited, priority 2019, dated 2025).
